Patent publication US10053447B2, “Fluorescent compounds” (Pierce Biotechnology, Inc, priority 2010, dated 2018)

Experiments:
[1] = tested on: mouse IgG, rabbit IgG, biotinylated bovine serum albumin (BBSA); assay: Functional assay, summary over GAM, GAR and SA conjugates; type: binding; details: compared with DyLight 549 or DyLight 649 conjugates
Experimental: Performance of the dye-GAM conjugates, dye-GAR conjugates, and dye-SA conjugates was evaluated in a functional assay. Wells of a 96 white opaque plate were coated with target proteins mouse IgG immunoglobulin, rabbit IgG immunoglobulin, or biotinylated bovine serum albumin (BBSA). One hundred μl mouse or rabbit IgG or BBSA at a concentration of 10 μg/ml was applied to the corresponding wells in columns 1 and 2. The target proteins were serially diluted 1:1 from the wells in columns 2 to 11 using 100 μl PBS. One hundred 100 μl of the samples from the wells in column 11 were discarded. One hundred μl PBS was added to the wells in column 12. The plates were incubated overnight at 4° C. and then blocked 2×200 μl with Thermo Scientific SuperBlock® Blocking Buffer. The coated plates were washed 2×200 μl with PBS-Tween and 1×200 μl with PBS. Conjugates diluted in PBS to 4 μg/ml were added to the corresponding plates (100 μl/well) and then incubated for 1 h in the dark. The plates were washed with 2×200 μl with PBS-Tween and 1×200 μl with PBS and filled with PBS buffer (100 μl/well) prior to scanning on Tecan Safire using 562 nmexcitation/576 nmemission to detect fluorescence intensity.
Performance of the dye-GAM conjugates and dye-GAR conjugates was evaluated in a functional assay. Wells of a 96 well white opaque plate were coated with mouse IgG, or rabbit IgG. One hundred μl mouse or rabbit IgG at a concentration of 10 μg/ml was applied to the corresponding wells in columns 1 and 2. The IgG proteins were serially diluted 1:1 from the wells in columns 2 to 11 using 100 μl PBS. One hundred 100 μl of the samples from the wells in column 11 were discarded. One hundred μl PBS was added to the wells in column 12. […] The plates were washed with 2×200 μl with PBS-Tween and 1×200 μl with PBS and filled with PBS buffer (100 μl/well) prior to scanning on Tecan Safire using the Alexa 647 setting (650 nmexcitation/665 nmemission) and the DyLight 649 setting (654 nmexcitation/673 nmemission to detect fluorescence intensity

U2OS cells; A550 cells = assay: Immunofluorescence cell based assays, summary statements; set-up: species or system human; details: GAM and GAR conjugates
Experimental: The inventive compounds and commercial dye were evaluated for immunofluorescence in cell based assays using the following protocol. Plates containing U2OS cells (human osteosarcoma cell line) were fixed in 4% paraformaldehyde in PBS/0.1% Triton X-100 for 15 min at room temperature. The cells were then permeabilized with 2% BSA in PBS/0.1% Triton X-100 for 30 min at room temperature. Diluted primary antibodies in PBS/0.1% Triton X-100 were added to the plates and incubated overnight at 4° C. The plates were washed 3×100 μl with PBS. Based on the calculated protein concentrations, the conjugates were diluted to 4 μg/ml (1:250 from 1 mg/ml stock) in PBS/0.1% Triton X-100 and added to the plates (50 μl/well) and incubated 1 h in the dark at room temperature. The plates were washed 3×100 μl with PBS. One hundred μl of 2 μg/ml Hoechst dye in PBS was added per well. The plates were then scanned on an ArrayScan® Plate Reader for imaging and quantitation.
The inventive compounds and commercial dyes were evaluated for immunofluorescence in cell based assays using the following protocol. Plates containing A550 cells (adenocarcinoma human alveolar basal epithelial cells, P5, Sep. 23, 2010) and stored at −80° C. were placed at 50° C. for 30 min. The storage buffer (PBS) was removed and then the cells were permeabilized for 15 min (100 μl/well) with 0.1% Triton-X100 in 1×PBS buffer. The plates were blocked for 30 min in 2% BSA in 1×PBS-0.1% Triton-X100 and then incubated with primary antibodies diluted in 2% BSA in 1×PBS, 0.1% Trion-X100, overnight at 4° C. […] The remaining wells were incubated in blocking buffer only (no primary antibody). After overnight incubation, the antibody solution was removed from the wells, and the plates were washed with PBS-Tween (2×100 μl/well). The labeled secondary antibody conjugates, diluted to 4 μg/ml in PBS were added to corresponding wells and incubated for 1 h at room temperature (about 20° C. to about 22° C.). The plates were washed 3×100 μl/well with PBS and Hoechst stain diluted 1 μg/ml in PBS were added to each well (100 μl/well) of each plate. The plates were then scanned on the Thermo Scientific ArrayScan® HCS Reader for imaging and quantitation.

streptavidin (SA) [2] = target: T1, streptavidin (SA) (Streptomyces avidinii, UniProt P22629); assay: Labeling efficiency (degree of labeling, mole dye to mole protein ratio) of streptavidin; details: SA, NHS ester, 5X molar excess
T1 sequence (P22629 25-183, species assumed): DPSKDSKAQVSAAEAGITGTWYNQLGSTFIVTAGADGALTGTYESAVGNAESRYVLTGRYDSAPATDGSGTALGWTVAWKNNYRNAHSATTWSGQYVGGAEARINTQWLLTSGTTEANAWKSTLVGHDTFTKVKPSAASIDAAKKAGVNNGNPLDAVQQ
Experimental: Inventive and commercial compounds, each as the NHS ester, were conjugated to goat anti-mouse (GAM), goat anti-rabbit (GAR) antibodies, and streptavidin (SA). GAM, GAR, and SA, at 10 mg/ml in phosphate buffered saline (PBS), were dialyzed against 50 mM borate buffer, pH 8.5. The compounds were reconstituted in dimethylformamide (DMF) at 10 mg/ml and combined at 2×, 4×, 5×, 7.5×, or 10× molar excess with GAM, GAR, or SA for 2 h at room temperature to label the antibodies or SA.
The labeled compounds, also termed dyes or labels, were subjected to PDDR to remove the unlabeled (free) compound; 100 μl of the packed resin was used per mg of protein purified. The purified antibody-labeled dyes were then diluted 1:50 in PBS and scanned for absorbance from 700 nm to 230 nm to determine the protein concentration, and to determine the mole dye to mole protein ratio. Each conjugate was diluted 1:10 in 50% glycerol and heated in the presence of 10 mM dithiothreitol (DTT) for 5 min at 95° C., then separated by electrophoresis on polyacrylamide gels in the presence of sodium dodecyl sulfate (SDS-PAGE). The gels were scanned using the Typhoon 9400 Imager to verify removal of the unconjugated compound. Labeling efficiency was compared, with results showing degree of labeling below.
Compounds 1, 2, and 3, each as the NHS ester, and DyLight 649-NHS were conjugated to goat anti-mouse (GAM) and goat anti-rabbit (GAR) antibodies. GAM and GAR, at a concentration of 10 mg/ml in phosphate buffered saline (PBS), were dialyzed against 50 mM borate buffer, pH 8.5. The compounds were reconstituted in dimethylformamide (DMF) at 10 mg/ml. To label the antibodies, the compounds were added at 2.5× molar excess and 5× molar excess for 2 h at room temperature. Streptavidin (SA) was reconstituted in PBS buffer, pH 7.2, and 50 mM borate buffer, pH 8.5, and labeled with 2.5× molar excess and 4× molar excess of the compound.
The antibody-labeled compounds, also termed dyes or labels, were subjected to gel filtration chromatography (15 cm×0.8 cm columns) or to the PDDR to remove the unlabeled (free) compound; 100 μl of the packed resin was used per mg of protein purified. The purified antibody-labeled dyes were then diluted 1:100 in PBS and scanned for absorbance from 700 nm to 230 nm to determine the protein concentration, and to determine the mole dye to mole protein ratio. Each conjugate was diluted 1:10 in 50% glycerol and heated in the presence of 10 mM dithiothreitol (DTT) for 5 min at 95° C., then separated by electrophoresis on polyacrylamide gels in the presence of sodium dodecyl sulfate (SDS-PAGE). The gels were scanned using the Typhoon 9400 Imager to verify removal of the unconjugated compound. Labeling efficiency was compared using labeling of the compounds to GAM antibody at a 2.5× molar excess of compound, with results shown below.
Labeling efficiency was also compared using labeling of the dyes to streptavidin (SA) at either a 2.5 fold or a 4 fold molar excess of the dye, with SA in PBS, pH 7.2, and borate buffer, pH 8.5.
650 Compound 1 (isomer 2)-TFP, 650 Compound 1 (isomer 1)-TFP, 650 Compound 1 (isomer 2)-TFP, 650 Compound 1-NHS, and DyLight 649-NHS were conjugated to GAM, GAR, and SA. GAM and GAR, at a concentration of 10 mg/ml in phosphate buffered saline (PBS), were dialyzed against 50 mM borate buffer, pH 8.5. The compounds were reconstituted in dimethylformamide (DMF) at 10 mg/ml and used to label antibodies at 5× molar excess of compound for two hours at room temperature to label the antibodies. SA was reconstituted in 50 mM borate buffer, pH 8.5, and combined with 4× molar excess to label the SA.
The antibody-conjugated and SA-conjugated compounds, also termed dyes or labels, were subjected to the PDDR to remove the unlabeled (free) compound. The purified antibodies and SA were then diluted 1:25 in PBS and scanned for absorbance from 700 nm to 230 nm to determine the protein concentration, and to determine the mole dye to mole protein ratio. […]

streptavidin (SA) [3] = target: T1, streptavidin (SA); assay: as above; details: NHS ester, 3X molar excess

COCC[N+]1=C(/C=C/C=C/C=C2/N(CCCCCC(=O)O)c3ccc(S(=O)(=O)O)cc3C2(C)CCCS(=O)(=O)O)C(C)(CCCS(=O)(=O)O)c2cc(S(=O)(=O)O)ccc21.[Na+].[Na+].[Na+] (stereo not shown) [650 Compound 1, 2-{(1E,3E)-5-[1-(5-Carboxypentyl)-3-methyl-5-sulfo-3-(3-sulfopropyl)-1,3-dihydro-indol-(2E)-ylidene]-penta-1,3-dienyl}-1-(2-methoxy-ethyl)-3-methyl-5-sulfo-3-(3-sulfopropyl)-3H-indolium tri sodium salt]
Performance of conjugates (GAM, GAR, SA) in the functional assay in terms of signal-to-noise [1]: superior to DyLight 649 conjugates
Immunofluorescence performance of conjugates compared with commercial DyLight dye (U2OS cells; A550 cells; tri sodium salt): at least similar performance to DyLight 649 conjugates (GAM, GAR), and in some cases superior performance

COCCOCC[N+]1=C(/C=C/C=C/C=C2/N(CCCCCC(=O)O)c3ccc(S(=O)(=O)O)cc3C2(C)CCCS(=O)(=O)O)C(C)(CCCS(=O)(=O)O)c2cc(S(=O)(=O)O)ccc21.[Na+].[Na+].[Na+] (stereo not shown) [650 Compound 2, 2-{(1E,3E)-5-[1-(5-carboxypentyl)-3-methyl-5-sulfo-3-(3-sulfopropyl)-1,3-dihydroindol-(2E)-ylidene]-penta-1,3-dienyl}-1-[2-(2-methoxy-ethoxy)-ethyl]-3-methyl-5-sulfo-3-(3-sulfopropyl)-3H-indolium tri sodium salt]
Performance of conjugates (GAM, GAR, SA) in the functional assay in terms of signal-to-noise [1]: superior to DyLight 649 conjugates
Immunofluorescence performance of conjugates compared with commercial DyLight dye (U2OS cells; A550 cells): at least similar performance to DyLight 649 conjugates (GAM, GAR), and in some cases superior performance

COCCOCCOCC[N+]1=C(/C=C/C=C/C=C2/N(CCCCCC(=O)O)c3ccc(S(=O)(=O)O)cc3C2(C)CCCS(=O)(=O)O)C(C)(CCCS(=O)(=O)O)c2cc(S(=O)(=O)O)ccc21.[Na+].[Na+].[Na+] (stereo not shown) [650 Compound 3, 2-{(1E,3E)-5-[1-(5-carboxypentyl)-3-methyl-5-sulfo-3-(3-sulfopropyl)-1,3-dihydro-indol-(2E)-ylidene]-penta-1,3-dienyl}-1-{2-[2-(2-methoxy-ethoxy)-ethoxy]-ethyl}-3-methyl-5-sulfo-3-(3-sulfopropyl)-3H-indolium tri sodium salt]
Performance of conjugates (GAM, GAR, SA) in the functional assay in terms of signal-to-noise [1]: superior to DyLight 649 conjugates
Immunofluorescence performance of conjugates compared with commercial DyLight dye (U2OS cells; A550 cells): at least similar performance to DyLight 649 conjugates (GAM, GAR), and in some cases superior performance

Alexa 750-SA: Alexa 750 conjugated to streptavidin (SA) [reference compound]
D/P 5X (streptavidin (SA) [2]): 4.7
D/P 3X (streptavidin (SA) [3]): 3.3

DyLight 750-SA: DyLight 750 conjugated to streptavidin (SA) [reference compound]
D/P 5X (streptavidin (SA) [2]): 4.0
D/P 3X (streptavidin (SA) [3]): 2.5
